Calls of active or inactive are those of the source.
Assays:
[1] = LGR2 antagonists, dose response, cell-based, HEK293, CRE-luciferase reporter, cherry pick, set 2 (AID 743343); format: functional;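 note: transfected cells were stimulated with diluted bursicon conditioned medium after compound addition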
[2] = biological target: T1, Carboxy-terminal domain RNA polymerase II polypeptide A small phosphatase 1 (Homo sapiens, UniProt Q9GZU7); experiment: inhibitors of CTDSP1, concentration-response testing, biochemical assay, absorbance-based, actives from ultra-high-throughput screening (AID 540297); format: functional
T1 sequence (Q9GZU7 whole entry): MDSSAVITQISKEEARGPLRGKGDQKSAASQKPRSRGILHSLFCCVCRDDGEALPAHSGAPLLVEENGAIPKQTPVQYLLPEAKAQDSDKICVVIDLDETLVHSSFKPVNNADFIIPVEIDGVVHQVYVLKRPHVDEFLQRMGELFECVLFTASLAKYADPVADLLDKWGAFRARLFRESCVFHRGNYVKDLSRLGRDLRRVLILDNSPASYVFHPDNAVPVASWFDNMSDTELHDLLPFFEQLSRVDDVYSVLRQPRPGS

[3] = system: Streptococcus sp. 'group A'; experiment: growth inhibition of control SK(-) GAS strain, dose response, counter-screen for streptokinase expression inhibitor project, luminescence, kanamycin, BacTiterGlo, confirmation (AID 1900); format: functional, organism-based
Streptococcus = experiment: Group A Streptococcus viability loss, dose response, counter-screen for streptokinase expression inhibitor project, luminescence, BacTiterGlo (AID 1915); format: functional, organism-based;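 note: potency for reduction of bacterial viability or growth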
[4] = biological target: T2, Short transient receptor potential channel 4 (Mus musculus, UniProt Q9QUQ5); experiment: mouse TRPC4 channel activators, dose response, cell-based, HEK293 TRPC4/mu-opioid, Fluo-4 calcium (AID 434937); format: functional
T2 sequence (Q9QUQ5 whole entry): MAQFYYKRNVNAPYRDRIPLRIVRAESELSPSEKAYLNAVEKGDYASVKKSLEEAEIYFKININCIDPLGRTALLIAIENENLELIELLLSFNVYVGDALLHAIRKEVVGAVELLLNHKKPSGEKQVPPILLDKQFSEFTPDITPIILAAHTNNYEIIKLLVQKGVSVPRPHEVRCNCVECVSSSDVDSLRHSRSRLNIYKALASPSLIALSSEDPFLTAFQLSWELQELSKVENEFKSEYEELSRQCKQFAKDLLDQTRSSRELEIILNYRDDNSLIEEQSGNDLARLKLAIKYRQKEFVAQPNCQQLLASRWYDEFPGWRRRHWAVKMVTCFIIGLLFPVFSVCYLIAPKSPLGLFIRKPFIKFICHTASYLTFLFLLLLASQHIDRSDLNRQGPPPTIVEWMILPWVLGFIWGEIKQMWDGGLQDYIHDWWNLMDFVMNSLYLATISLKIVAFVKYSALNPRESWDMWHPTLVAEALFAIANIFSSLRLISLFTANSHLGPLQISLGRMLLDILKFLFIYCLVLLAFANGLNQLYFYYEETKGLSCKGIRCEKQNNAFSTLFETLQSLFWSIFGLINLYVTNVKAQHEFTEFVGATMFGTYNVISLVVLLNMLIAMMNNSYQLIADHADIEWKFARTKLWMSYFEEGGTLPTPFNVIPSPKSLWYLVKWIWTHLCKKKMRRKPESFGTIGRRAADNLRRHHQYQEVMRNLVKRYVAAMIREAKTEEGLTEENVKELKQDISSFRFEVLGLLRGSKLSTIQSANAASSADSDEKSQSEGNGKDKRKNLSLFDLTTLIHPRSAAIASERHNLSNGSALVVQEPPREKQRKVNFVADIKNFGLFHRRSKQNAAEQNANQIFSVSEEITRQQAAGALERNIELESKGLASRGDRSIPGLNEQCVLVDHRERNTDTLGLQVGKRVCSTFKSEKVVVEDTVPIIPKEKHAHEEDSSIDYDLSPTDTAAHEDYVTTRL

[5] = biological target: T3, High affinity choline transporter 1 (Homo sapiens, UniProt Q9GZV3); experiment: CHT inhibitors, dose response, cell-based, 5-point CRC, membrane potential dye (AID 504840); format: functional
T3 sequence (Q9GZV3 whole entry): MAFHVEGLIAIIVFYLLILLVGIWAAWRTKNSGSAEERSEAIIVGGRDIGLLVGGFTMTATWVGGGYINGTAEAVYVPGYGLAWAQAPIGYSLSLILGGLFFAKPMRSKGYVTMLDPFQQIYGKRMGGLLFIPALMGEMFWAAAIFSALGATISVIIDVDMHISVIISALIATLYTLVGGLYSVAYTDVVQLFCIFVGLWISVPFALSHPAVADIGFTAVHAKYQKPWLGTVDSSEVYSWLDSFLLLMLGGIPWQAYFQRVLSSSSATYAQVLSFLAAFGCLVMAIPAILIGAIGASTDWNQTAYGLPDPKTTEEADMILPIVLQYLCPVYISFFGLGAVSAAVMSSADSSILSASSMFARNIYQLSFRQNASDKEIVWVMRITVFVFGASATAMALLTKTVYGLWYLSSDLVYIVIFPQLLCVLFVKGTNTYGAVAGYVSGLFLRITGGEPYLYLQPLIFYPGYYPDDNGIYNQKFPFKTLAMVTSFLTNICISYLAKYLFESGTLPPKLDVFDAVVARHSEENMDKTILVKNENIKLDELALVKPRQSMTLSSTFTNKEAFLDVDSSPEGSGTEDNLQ

Cytochrome P450 3A4 = Cytochrome P450 3A4 (Homo sapiens, UniProt P08684); conditions: Potency;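 note: confirmatory qHTS run detecting inhibitors and substrates of CYP3A4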
Sequence of Cytochrome P450 3A4 (P08684 whole entry): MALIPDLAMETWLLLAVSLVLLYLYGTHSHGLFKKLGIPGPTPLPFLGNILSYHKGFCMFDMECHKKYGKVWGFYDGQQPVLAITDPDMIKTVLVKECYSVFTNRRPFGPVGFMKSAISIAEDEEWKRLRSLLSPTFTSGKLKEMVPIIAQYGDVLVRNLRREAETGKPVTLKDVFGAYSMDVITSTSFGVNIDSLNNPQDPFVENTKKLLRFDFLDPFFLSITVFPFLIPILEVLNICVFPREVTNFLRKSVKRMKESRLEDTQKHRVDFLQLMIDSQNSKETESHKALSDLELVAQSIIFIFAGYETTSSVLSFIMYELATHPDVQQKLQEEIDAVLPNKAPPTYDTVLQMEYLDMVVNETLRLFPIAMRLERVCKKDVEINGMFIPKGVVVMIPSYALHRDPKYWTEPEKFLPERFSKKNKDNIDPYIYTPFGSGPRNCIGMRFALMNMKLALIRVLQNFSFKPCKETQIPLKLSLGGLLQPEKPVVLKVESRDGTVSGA

Paired box protein Pax-8 = Paired box protein Pax-8 (Homo sapiens, UniProt Q06710); experiment: inhibitors of PAX8-driven TPO luciferase reporter, dose response, RMG-I cells, cherry-pick (AID 687027); format: functional, cell-based;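 note: luciferase reporter driven by Pax8 target thyroperoxidase promoter measured by SteadyGlo luminescence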
Sequence of Paired box protein Pax-8 (Q06710 whole entry): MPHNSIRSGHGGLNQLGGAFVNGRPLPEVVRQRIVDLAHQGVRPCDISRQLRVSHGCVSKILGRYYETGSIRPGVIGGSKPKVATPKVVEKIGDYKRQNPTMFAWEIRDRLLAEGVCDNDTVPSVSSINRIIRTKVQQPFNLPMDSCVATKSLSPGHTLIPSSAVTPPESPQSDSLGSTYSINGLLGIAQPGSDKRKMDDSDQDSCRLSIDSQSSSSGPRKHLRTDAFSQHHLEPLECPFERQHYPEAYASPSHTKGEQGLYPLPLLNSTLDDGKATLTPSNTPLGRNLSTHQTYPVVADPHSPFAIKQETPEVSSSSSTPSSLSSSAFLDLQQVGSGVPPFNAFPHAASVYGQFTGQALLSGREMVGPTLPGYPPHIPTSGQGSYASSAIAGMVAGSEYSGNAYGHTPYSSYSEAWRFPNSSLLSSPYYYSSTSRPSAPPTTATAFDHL

[6] = NIH:OVCAR-3 ovarian cancer cell cytotoxicity, dose response, PAX8 inhibitor project, plate reader, dry powder samples (AID 743044); format: functional, cell-based
[7] = cytotoxicity in OVCAR8 ovarian cancer cells, dose response, PAX8 project, cell-based, plate reader, dry powder samples (AID 743197); format: functional; conditions: OVCAR-8
cells [8] = format: functional, cell-based
cells [9] = format: functional, cell-based; remark: listed apart in the source
[10] = THP-1 cell cytotoxicity, dose response, cytotoxicity control for non-replicating M. tuberculosis project (AID 489025); format: functional
[11] = HepG2 cell cytotoxicity, dose response, cytotoxicity control for non-replicating M. tuberculosis project (AID 489018); format: functional; conditions: Mycobacterium tuberculosis
[12] = Vero E6 cell cytotoxicity, dose response, cytotoxicity control for non-replicating M. tuberculosis project, secondary assay (AID 492998); format: functional, VeroE6; conditions: Vero C1008
cells [13] = format: functional
INS1 = experiment: beta cell apoptosis inhibitors, cytokine rescue, dose response, luminescence, retest (AID 449756); format: functional, cell-based; conditions: Rattus norvegicus;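 note: cell death triggered by IL-1 beta plus TNF-alpha plus IFN-gamma mixture; protective hits raise ATP signal compared with cytokine alone wells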

O=S1(=O)CCOC[C@H](CC2CCCCC2)N1Cc1ccccc1F
AC50 [1]: 53.7 µM (active)

Nc1cc(C(=O)OCC(=O)c2ccc(CC(=O)N3CCOCC3)s2)ccc1Cl
IC50 [2]: 5.84 µM (active)

COc1ccccc1C(=O)NNC(=S)NC(=O)c1sc2ccccc2c1Cl
EC50 [3]: 0.072 µM (active) | EC50 (Streptococcus): 0.878 µM (active) | EC50 [4]: 5.31 µM (active) | IC50 [5]: 14.5 µM (active)

Oc1ccc2c(c1)OCO2
AC50 (Cytochrome P450 3A4): 15.8 µM (inconclusive)

C[C@@H]1CN([C@H](C)CO)S(=O)(=O)c2ccc(-c3ccc(C#N)cc3)cc2O[C@@H]1CN(C)Cc1cccc(F)c1
AC50 (Paired box protein Pax-8): 3.4 µM (active) | AC50 [6]: 29.1 µM (active) | AC50 [7]: 25.8 µM (active)

CCCN1[C@H](C(=O)N2CCOCC2)[C@@H](CO)[C@@H]2Cn3c(ccc(/C=C/c4ccccc4)c3=O)[C@@H]21
AC50 (Paired box protein Pax-8): 48.2 µM (active) | AC50 [7]: > 70 µM (inactive)

Oc1ccccc1/C=N/Nc1ncc(Br)cn1
EC50 (cells [8]): 7.46 µM (active) | EC50 (cells [9]): 23 µM (active) | CC50 [10]: 6.62 µM (active) | CC50 [11]: > 20 µM (active) | CC50 [12]: 3.26 µM (active) | IC50 (cells [13]): 7.9 µM (active) | AC50 (INS1): 2.77 µM (active)

COc1ccc(NS(=O)(=O)c2cccc(C(=O)N/N=C/c3c(F)c(F)c(F)c(F)c3F)c2)cc1
IC50 [2]: 10.7 µM (active)

CCOC(=O)C(Cc1ccc(O)cc1)NC(C)=O (stereo not drawn) [ACETYL TYROSINE ETHYL ESTER]
AC50 (Cytochrome P450 3A4): 25.1 µM (inconclusive)

COc1c2c(c(CC=C(C)C)c3oc(=O)c(-c4ccc(O)cc4)c(O)c13)OC(C)(C)C=C2 [LONCHOCARPIC ACID]
AC50 (Cytochrome P450 3A4): 12.6 µM (inconclusive)

CC(C)(C)CC(C)(C)c1ccc(OCCO)cc1 [TRITON X]
AC50 (Cytochrome P450 3A4): 31.6 µM (inconclusive)

Reference: ChEMBL document CHEMBL1201862, “PubChem BioAssay data set” (2004)
